The nature of the assay: Inhibition of Huntingtin polyQ 49 mutant in Huntington's disease patient derived human iPSC cells incubated for 48 hrs by HTRF assay. In kind it is cell-based. (In general: Time-resolved FRET reads energy transfer from a long-lived donor to a nearby acceptor.)

pIC50: −log10 of the molar value. A value given as a limit tells only on which side of the number the result lay.

Broadly, the pIC50 is the negative decadic logarithm of the IC50, by convention in mol/L. For `Cc1cn2nc(-c3cc(F)c4nc(N5CCC(N(C)C)CC5)oc4c3)cc(C(F)(F)F)c2n1`, the pIC50 is > 7.00.

As for `Cc1cn2nc(-c3cc(F)c4nc(C5CCNCC5)cn4c3)cc(C)c2n1`, the pIC50 was > 7.00.

`Cc1cn2nc(-c3cc(F)c4nc(C5CCN(C6CC6)CC5)cn4c3)cc(C(F)F)c2n1`: the pIC50 is > 7.00.

On to `Cc1cn2nc(-c3cc(F)c4nc(C5CCN(C6COC6)CC5)cn4c3)cc(C)c2n1`, for which the negative-log IC50 (pIC50) is > 7.00.

Turning to `Cc1cn2nc(-c3cc(F)c4nn(C5CCNCC5)nc4c3)cc(C(F)F)c2n1`, the pIC50 was > 7.00.

With `Cc1cn2nc(-c3cc(F)c4nc(C5CCNC5)cn4c3)cc(C)c2n1` (stereo unspecified), the pIC50 is > 7.00.

The record behind these values is ChEMBL document CHEMBL5344454 (ACS Med Chem Lett, 2024).
